The values that follow are results of earlier work, collected in patent publication US7879746B2, “Hydrophilic polypropylene fibers having antimicrobial activity” (3M Innovative Properties Company, priority 1999, dated 2011).

The conditions of the data set: 100% active, glossary value.
As for sorbitan monopalmitate [SPAN™ 40], the HLB is listed as 6.7.

With sorbitan monostearate [ARLACEL™ 60], the HLB is reported as 4.3.

As to “sorbitan sequioleate (1½ mole adduct) [ARLACEL™ 83]”, the HLB is listed as 3.7.
